Measured values reported in ChEMBL document CHEMBL1140732, “2-(3-aryl-3-oxopropen-1-yl)-9-tert-butyl-paullones: a new antileishmanial chemotype” (J Med Chem, 2008).

What was measured:
Leishmania donovani [1] = test: microbe, parasite or virus in culture; type: functional; details: 1S-C12d, THP-1
Description: Growth inhibition of Leishmania donovani MHOM/SD/1962/1S-C12d axenic amastigotes in infected THP1 macrophages at 5 uM by alamar blue viability assay

THP-1 [2] = test: Toxicity against human THP1 cells at 5 uM by alamar blue viability assay; details: thp-1, 5 µM
Leishmania donovani [3] = test: microbe, parasite or virus in culture; type: functional; details: 1S-C12d
Description: Antileishmanial activity against Leishmania donovani MHOM/SD/1962/1S-C12d axenic amastigotes by alamar blue viability assay

Leishmania donovani [4] = test: microbe, parasite or virus in culture; type: functional; details: 1S-C12d; remark: listed apart in the source
Description: Antileishmanial activity against Leishmania donovani MHOM/SD/1962/1S-C12d axenic amastigotes at 15 uM by alamar blue viability assay

Leishmania donovani [5] = test: Growth inhibition of Leishmania donovani MHOM/SD/1962/1S-C12d […] amastigotes in infected THP1 macrophages at 1 uM by alamar blue viability assay; type: functional; details: THP-1
THP-1 [6] = test: Toxicity against human THP1 cells at 1 uM by alamar blue viability assay; type: cell-based; details: thp-1, 1 µM
[7] = Inhibition of fumarate reductase in crude mitochondria fraction of Leishmania major promastigotes
[8] = Inhibition of fumarate reductase in permeabilized Leishmania major promastigotes
[9] = Toxicity against mouse macrophages at 10 uM; type: cell-based; details: macrophage
Leishmania donovani [10] = test: Inhibition of Leishmania donovani infection in mouse macrophages; type: functional; details: read-out: ED50 (the source's name)

IC50 [7] [nM] | IC50 [8] [nM] | EC50 (Leishmania donovani [10]) [nM] | SMILES | inhibition at 5 µM (Leishmania donovani [1]) [%] | Activity (THP-1 [2]) [%] | GI50 (Leishmania donovani [3]) [nM] | inhibition at 15 µM (Leishmania donovani [4]) [%] | inhibition at 1 µM (Leishmania donovani [5]) [%] | Activity (THP-1 [6]) [%] | Activity [9]
– | – | – | CC(=O)/C=C/c1ccc2c(c1)-c1[nH]c3ccc(C)cc3c1CC(=O)N2 | 0 | 0 | 12000 | 65.2 | – | – | –
– | – | – | CC(=O)/C=C/c1ccc2c(c1)-c1[nH]c3ccc(C#N)cc3c1CC(=O)N2 | 0 | 48 | – | 9.8 | – | – | –
– | – | – | CC(=O)/C=C/c1ccc2c(c1)-c1[nH]c3ccc(C(C)(C)C)cc3c1CC(=O)N2 | 56.2 | 62 | 2800 | 99 | – | – | –
– | – | – | O=C1Cc2c([nH]c3ccccc23)-c2cc(/C=C/C(=O)c3ccccc3)ccc2N1 | 0 | 0 | 5000 | 99.6 | – | – | –
– | – | – | Cc1ccc2[nH]c3c(c2c1)CC(=O)Nc1ccc(/C=C/C(=O)c2ccc(Cl)cc2)cc1-3 | 0 | 0 | – | 17.4 | – | – | –
– | – | – | CC(C)(C)c1ccc2[nH]c3c(c2c1)CC(=O)Nc1ccc(/C=C/C(=O)c2ccccc2)cc1-3 | 61.8 | 0 | 1100 | 99 | – | – | –
– | – | – | COc1ccc(C(=O)/C=C/c2ccc3c(c2)-c2[nH]c4ccc(C(C)(C)C)cc4c2CC(=O)N3)cc1 | 71.7 | 0 | 1200 | 97.5 | – | – | –
– | – | – | CC(C)(C)c1ccc2[nH]c3c(c2c1)CC(=O)Nc1ccc(/C=C/C(=O)c2ccc(Cl)cc2)cc1-3 | 76.8 | 0 | 1200 | 98.3 | – | – | –
– | – | – | CC(C)(C)c1ccc2[nH]c3c(c2c1)CC(=O)Nc1ccc(/C=C/C(=O)c2ccco2)cc1-3 | 76.2 | 3.3 | 760 | 97.6 | – | – | –
– | – | – | CC(C)(C)c1ccc2[nH]c3c(c2c1)CC(=O)Nc1ccc(/C=C/C(=O)c2cccnc2)cc1-3 | 76.2 | 0 | 780 | 98.1 | – | – | –
– | – | – | COc1cc(C(=O)/C=C/c2ccc3c(c2)-c2[nH]c4ccc(C(C)(C)C)cc4c2CC(=O)N3)cc(OC)c1OC | 99.2 | 92.7 | 1100 | 96.8 | – | – | –
– | – | – | COc1ccc(OC)c(C(=O)/C=C/c2ccc3c(c2)-c2[nH]c4ccc(C(C)(C)C)cc4c2CC(=O)N3)c1 | 93.8 | 95.7 | 1100 | 96.8 | – | – | –
– | – | – | COc1ccc(C(=O)/C=C/c2ccc3c(c2)-c2[nH]c4ccc(C(C)(C)C)cc4c2CC(=O)N3)c(OC)c1 | 85.6 | 0 | 840 | 93.6 | – | – | –
– | – | – | COc1ccc(C(=O)/C=C/c2ccc3c(c2)-c2[nH]c4ccc(C(C)(C)C)cc4c2CC(=O)N3)cc1OC | 86 | 49.7 | 1000 | 95.5 | – | – | –
– | – | – | CC(=O)/C=C/c1ccc2c(c1)-c1[nH]c3ccccc3c1CC(=O)N2 | 11.4 | 0 | 3400 | 98.7 | – | – | –
– | – | – | CC(=O)/C=C/c1ccc2c(c1)-c1[nH]c3ccc(F)cc3c1CC(=O)N2 | 0 | 0 | – | 45.4 | – | – | –
– | – | – | CC(C)(C)c1ccc2[nH]c3c(c2c1)CC(=O)Nc1ccc(/C=C/C(=O)c2cccs2)cc1-3 | 79.3 | 60.5 | 1000 | 98.8 | – | – | –
– | – | – | CC(C)(C)c1ccc2[nH]c3c(c2c1)CC(=O)Nc1ccc(/C=C/C(=O)c2ccc(O)cc2)cc1-3 | 54.8 | 80.3 | 3000 | 97.2 | – | – | –
– | – | – | CC(C)(C)c1ccc2[nH]c3c(c2c1)CC(=O)Nc1ccc(/C=C/C#N)cc1-3 | 47.3 | 0 | 3600 | 63.8 | – | – | –
– | – | – | CC(C)(C)c1ccc2[nH]c3c(c2c1)CC(=O)Nc1ccc(C#Cc2ccccc2)cc1-3 | 72 | 9 | 860 | 79.6 | – | – | –
– | – | – | COc1ccc(C(=O)/C=C/c2ccc(NC(C)=O)cc2)cc1 | – | – | – | 69.6 | – | – | –
– | – | – | C[C@@H]1[C@H](O)[C@@H](C)/C=C/C=C/C=C/C=C/C=C/C=C/C=C/[C@H](O[C@@H]2O[C@H](C)[C@@H](O)[C@H](N)[C@@H]2O)C[C@@H]2O[C@](O)(C[C@@H](O)C[C@@H](O)[C@H](O)CC[C@@H](O)C[C@@H](O)CC(=O)O[C@H]1C)C[C@H](O)[C@H]2C(=O)O (stereo in doubt) [AMPHOTERICIN B] | – | – | – | – | > 90 | > 90 | –
1400 | 1200 | – | C=CC(C)(C)c1cc(/C=C/C(=O)c2ccc(O)cc2)c(OC)cc1O [LICOAGROCHACONE A] | – | – | – | – | – | – | –
– | – | 19600 | N#Cc1ccc2[nH]c3c(c2c1)CC(=O)Nc1ccccc1-3 [PAULLONE 2] | – | – | – | – | – | – | Toxic
